Assay [1] addresses Beta-1 adrenergic receptor (Homo sapiens, UniProt P08588). In kind it is functional.
Assay [2] deals with T1, 5-hydroxytryptamine receptor 2C (Homo sapiens, UniProt P28335).
T1 sequence (P28335 whole entry): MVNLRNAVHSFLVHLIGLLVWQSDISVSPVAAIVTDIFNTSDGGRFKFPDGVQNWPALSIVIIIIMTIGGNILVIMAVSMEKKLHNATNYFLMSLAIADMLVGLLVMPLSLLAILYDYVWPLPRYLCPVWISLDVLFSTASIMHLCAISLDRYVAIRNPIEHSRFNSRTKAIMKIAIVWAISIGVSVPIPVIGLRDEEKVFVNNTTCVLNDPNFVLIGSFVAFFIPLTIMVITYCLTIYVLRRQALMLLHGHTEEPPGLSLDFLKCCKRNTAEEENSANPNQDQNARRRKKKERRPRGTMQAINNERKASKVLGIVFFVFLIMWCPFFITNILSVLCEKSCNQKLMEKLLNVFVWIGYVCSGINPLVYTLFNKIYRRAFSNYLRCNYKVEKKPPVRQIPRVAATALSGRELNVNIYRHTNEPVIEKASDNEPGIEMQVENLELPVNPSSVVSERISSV

Another assay addresses Histamine H3 receptor (Homo sapiens, UniProt Q9Y5N1).
Another assay concerns the target Adenosine receptor A2a (Homo sapiens, UniProt P29274).
Assay [3] has as its target Growth hormone secretagogue receptor type 1 (Homo sapiens, UniProt Q92847).
Assay [4] deals with Beta-2 adrenergic receptor (Homo sapiens, UniProt P07550). In kind it is functional, cell-based.
Sequence of Beta-2 adrenergic receptor (P07550 whole entry): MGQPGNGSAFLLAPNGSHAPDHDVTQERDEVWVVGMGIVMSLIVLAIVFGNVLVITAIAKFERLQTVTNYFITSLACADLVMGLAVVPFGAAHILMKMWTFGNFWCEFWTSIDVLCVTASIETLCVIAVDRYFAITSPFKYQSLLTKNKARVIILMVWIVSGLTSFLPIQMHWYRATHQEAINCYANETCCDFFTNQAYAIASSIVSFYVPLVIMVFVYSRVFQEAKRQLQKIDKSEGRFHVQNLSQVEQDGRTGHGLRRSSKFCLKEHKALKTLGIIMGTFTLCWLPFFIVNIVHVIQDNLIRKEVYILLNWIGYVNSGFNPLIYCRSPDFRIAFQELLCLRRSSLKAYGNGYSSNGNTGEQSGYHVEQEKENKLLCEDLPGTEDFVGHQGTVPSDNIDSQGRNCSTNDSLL
Assay [5] deals with T2, Cholecystokinin receptor type A (Homo sapiens, UniProt P32238).
T2 sequence (P32238 whole entry): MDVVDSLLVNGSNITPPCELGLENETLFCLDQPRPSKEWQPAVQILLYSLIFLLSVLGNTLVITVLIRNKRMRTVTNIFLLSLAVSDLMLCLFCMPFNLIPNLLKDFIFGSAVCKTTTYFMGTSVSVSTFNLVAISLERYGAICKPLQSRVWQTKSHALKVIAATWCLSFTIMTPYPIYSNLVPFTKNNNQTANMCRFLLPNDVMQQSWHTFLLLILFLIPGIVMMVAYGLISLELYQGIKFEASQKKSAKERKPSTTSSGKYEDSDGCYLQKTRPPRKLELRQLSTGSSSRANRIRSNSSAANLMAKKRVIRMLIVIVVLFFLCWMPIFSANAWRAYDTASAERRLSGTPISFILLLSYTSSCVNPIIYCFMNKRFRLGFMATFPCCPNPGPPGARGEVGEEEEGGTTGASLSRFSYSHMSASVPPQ

The target in assay [6] is Gamma-aminobutyric acid receptor subunit alpha-1 (Rattus norvegicus, UniProt P62813). It is filed as functional.
Sequence of Gamma-aminobutyric acid receptor subunit alpha-1 (P62813 whole entry): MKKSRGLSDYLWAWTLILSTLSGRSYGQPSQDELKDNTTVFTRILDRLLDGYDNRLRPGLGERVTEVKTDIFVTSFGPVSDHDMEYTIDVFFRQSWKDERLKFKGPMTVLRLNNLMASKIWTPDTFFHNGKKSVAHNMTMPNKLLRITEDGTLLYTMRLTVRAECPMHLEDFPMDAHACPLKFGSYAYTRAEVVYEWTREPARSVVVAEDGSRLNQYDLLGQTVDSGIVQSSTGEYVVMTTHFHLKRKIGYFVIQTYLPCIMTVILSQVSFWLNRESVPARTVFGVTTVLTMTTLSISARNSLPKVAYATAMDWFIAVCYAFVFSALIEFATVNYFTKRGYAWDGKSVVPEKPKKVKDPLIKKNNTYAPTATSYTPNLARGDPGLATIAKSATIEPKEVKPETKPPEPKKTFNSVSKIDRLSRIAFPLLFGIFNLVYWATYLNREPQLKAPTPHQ
For assay [7], the target named is Glutamate receptor ionotropic, NMDA 1 (Rattus norvegicus, UniProt P35439).
The target of assay [8] is Kappa-type opioid receptor (Homo sapiens, UniProt P41145).
Sequence of Kappa-type opioid receptor (P41145 whole entry): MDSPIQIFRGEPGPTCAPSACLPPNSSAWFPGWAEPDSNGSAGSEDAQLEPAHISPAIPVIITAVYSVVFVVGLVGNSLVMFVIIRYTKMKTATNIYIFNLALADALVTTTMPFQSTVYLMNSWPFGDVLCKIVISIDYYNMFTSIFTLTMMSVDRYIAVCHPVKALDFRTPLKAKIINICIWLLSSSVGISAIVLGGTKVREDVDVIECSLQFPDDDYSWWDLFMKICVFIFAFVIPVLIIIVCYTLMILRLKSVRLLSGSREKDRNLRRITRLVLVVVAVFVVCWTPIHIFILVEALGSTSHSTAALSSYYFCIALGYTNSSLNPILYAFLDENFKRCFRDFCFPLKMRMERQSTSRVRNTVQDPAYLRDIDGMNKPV
The target in another assay is T3, Progesterone receptor (Homo sapiens, UniProt P06401).
T3 sequence (P06401 whole entry): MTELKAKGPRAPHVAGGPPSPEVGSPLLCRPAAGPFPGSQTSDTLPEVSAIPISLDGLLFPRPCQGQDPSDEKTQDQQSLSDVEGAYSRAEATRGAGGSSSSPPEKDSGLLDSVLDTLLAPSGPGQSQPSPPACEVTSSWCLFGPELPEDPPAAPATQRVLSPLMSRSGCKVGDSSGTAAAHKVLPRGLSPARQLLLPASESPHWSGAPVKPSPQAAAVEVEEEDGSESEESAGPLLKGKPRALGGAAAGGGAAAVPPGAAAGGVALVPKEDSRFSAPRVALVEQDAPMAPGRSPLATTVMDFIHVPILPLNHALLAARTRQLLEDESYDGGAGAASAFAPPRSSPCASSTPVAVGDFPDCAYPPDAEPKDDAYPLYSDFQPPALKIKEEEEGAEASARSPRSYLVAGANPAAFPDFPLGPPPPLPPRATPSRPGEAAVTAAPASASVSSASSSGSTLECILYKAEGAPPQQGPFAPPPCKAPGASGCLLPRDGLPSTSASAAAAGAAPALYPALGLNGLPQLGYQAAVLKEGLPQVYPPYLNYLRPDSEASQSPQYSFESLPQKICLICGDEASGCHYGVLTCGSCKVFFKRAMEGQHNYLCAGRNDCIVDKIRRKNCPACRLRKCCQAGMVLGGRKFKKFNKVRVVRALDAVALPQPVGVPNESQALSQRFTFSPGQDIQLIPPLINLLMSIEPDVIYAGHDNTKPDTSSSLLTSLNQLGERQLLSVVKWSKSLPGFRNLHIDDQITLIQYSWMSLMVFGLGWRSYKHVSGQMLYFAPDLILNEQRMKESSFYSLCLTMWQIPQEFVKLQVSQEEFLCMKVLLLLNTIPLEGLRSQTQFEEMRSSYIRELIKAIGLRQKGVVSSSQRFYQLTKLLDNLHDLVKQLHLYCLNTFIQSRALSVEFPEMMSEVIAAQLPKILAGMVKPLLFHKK

The target of a further assay is T4, Adenosine receptor A3 (Homo sapiens, UniProt P0DMS8).
T4 sequence (P0DMS8 whole entry): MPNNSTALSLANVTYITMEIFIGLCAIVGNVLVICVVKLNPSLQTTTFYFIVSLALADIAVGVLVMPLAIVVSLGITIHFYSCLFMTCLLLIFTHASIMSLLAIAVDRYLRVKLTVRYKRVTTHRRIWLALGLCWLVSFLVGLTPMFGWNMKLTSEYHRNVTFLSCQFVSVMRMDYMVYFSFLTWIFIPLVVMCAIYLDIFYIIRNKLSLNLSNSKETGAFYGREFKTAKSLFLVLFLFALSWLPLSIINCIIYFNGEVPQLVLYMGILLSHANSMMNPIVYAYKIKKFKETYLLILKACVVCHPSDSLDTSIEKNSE

A further assay addresses T5, Thromboxane A2 receptor (Homo sapiens, UniProt P21731).
T5 sequence (P21731 whole entry): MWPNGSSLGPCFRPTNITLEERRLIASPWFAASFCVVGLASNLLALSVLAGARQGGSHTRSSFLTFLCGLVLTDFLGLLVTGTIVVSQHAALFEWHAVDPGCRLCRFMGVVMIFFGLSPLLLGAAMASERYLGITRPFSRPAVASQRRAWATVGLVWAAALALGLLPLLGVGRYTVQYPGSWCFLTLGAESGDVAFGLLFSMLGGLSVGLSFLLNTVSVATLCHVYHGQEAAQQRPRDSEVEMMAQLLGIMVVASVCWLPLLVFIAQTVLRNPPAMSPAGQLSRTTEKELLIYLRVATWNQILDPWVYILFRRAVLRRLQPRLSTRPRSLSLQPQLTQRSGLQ

In general, AC50 refers to the concentration giving half of the maximal activity seen.
Further: assay procedure not described here.

Sequence of Growth hormone secretagogue receptor type 1 (Q92847 whole entry): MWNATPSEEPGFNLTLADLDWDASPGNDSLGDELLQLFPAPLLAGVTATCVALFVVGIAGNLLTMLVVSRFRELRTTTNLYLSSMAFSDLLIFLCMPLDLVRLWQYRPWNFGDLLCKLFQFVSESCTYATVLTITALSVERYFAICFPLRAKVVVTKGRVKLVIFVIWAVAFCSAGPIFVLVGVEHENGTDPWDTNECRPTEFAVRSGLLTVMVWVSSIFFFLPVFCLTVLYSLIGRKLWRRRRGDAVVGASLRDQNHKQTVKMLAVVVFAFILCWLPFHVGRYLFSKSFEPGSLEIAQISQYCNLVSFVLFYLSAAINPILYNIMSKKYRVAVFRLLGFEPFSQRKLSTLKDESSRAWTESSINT
Sequence of Beta-1 adrenergic receptor (P08588 whole entry): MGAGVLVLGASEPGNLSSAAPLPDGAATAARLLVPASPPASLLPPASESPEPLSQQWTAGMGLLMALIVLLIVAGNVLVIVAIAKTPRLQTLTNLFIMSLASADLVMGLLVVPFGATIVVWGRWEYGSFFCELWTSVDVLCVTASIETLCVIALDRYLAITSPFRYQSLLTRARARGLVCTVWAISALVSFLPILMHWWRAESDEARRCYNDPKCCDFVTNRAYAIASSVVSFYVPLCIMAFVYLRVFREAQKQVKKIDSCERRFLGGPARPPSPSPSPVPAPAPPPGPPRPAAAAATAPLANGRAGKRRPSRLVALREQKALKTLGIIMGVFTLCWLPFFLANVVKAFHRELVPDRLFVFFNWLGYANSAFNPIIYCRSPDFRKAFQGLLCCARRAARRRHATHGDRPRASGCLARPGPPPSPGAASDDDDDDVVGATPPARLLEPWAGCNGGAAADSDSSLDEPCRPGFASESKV
Sequence of Histamine H3 receptor (Q9Y5N1 whole entry): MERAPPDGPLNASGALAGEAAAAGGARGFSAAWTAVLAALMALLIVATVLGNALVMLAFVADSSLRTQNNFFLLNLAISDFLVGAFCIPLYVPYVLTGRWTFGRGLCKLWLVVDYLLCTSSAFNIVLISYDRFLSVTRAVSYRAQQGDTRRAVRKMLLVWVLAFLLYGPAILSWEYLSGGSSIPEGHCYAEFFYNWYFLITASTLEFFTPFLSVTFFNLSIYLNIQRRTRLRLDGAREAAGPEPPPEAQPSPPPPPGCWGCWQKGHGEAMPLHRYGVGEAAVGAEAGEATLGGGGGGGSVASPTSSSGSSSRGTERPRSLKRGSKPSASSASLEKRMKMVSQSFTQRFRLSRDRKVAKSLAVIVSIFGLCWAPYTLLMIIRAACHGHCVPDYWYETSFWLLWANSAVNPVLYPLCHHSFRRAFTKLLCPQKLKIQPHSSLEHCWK
Sequence of Adenosine receptor A2a (P29274 whole entry): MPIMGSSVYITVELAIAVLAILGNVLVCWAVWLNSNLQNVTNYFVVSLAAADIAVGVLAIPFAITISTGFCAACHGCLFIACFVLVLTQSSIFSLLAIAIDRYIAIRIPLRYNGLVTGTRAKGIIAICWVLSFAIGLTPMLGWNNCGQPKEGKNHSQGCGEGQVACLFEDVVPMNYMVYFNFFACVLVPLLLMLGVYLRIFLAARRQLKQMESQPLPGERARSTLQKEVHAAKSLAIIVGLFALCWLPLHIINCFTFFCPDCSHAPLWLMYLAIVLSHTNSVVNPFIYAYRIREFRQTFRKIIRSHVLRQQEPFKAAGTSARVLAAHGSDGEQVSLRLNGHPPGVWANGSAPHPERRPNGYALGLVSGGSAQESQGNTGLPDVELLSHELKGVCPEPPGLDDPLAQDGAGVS

For `CC(=N)N1CC[C@H](SC2=C(C(=O)O)N3C(=O)[C@H]([C@@H](C)O)[C@H]3C2)C1`, the AC50 in [1] is 230 µM; in assay [2], greater than 300 µM; on Histamine H3 receptor, greater than 300 µM; on Adenosine receptor A2a, 300 µM; in [3], greater than 300 µM; in [4] it was greater than 300 µM. Moreover, in [5], the AC50 was greater than 300 µM.

Consider `C=C(C)[C@@H]1CCC(C)=C[C@H]1c1c(O)cc(CCCCC)cc1O` [CANNABIDIOL], for which the AC50 in assay [1] was greater than 30 µM; in [6], greater than 30 µM; in [2] it was greater than 30 µM; on Histamine H3 receptor it was 26 µM; at Adenosine receptor A2a, greater than 30 µM; in assay [3] it was greater than 30 µM. In addition, the AC50 in assay [4] is greater than 30 µM; in [5], 18.3 µM.

Consider `CO/N=C(\C(=O)N[C@@H]1C(=O)N2C(C(=O)O)=C(COC(N)=O)CS[C@H]12)c1ccco1` [CEFUROXIME], for which the AC50 (in [1]; in [6]; in assay [2]; in assay [7]; on Histamine H3 receptor; on Adenosine receptor A2a) was greater than 30 µM each time. The AC50 in assay [3], in assay [4], in assay [8] and in [5] was greater than 30 µM throughout.

Regarding `CC1(C)O[C@@H]2C[C@H]3[C@@H]4C[C@H](F)C5=CC(=O)C=C[C@]5(C)[C@H]4[C@@H](O)C[C@]3(C)[C@]2(C(=O)CO)O1` [FLUNISOLIDE], the AC50 (in [1]; in assay [6]; in assay [2]; on Histamine H3 receptor; at Adenosine receptor A2a; in assay [3]) was greater than 30 µM each time. In addition, the AC50 in [4] and in assay [5] was greater than 30 µM each time.

On to `C[C@H]1Oc2cc(cnc2N)-c2c(nn(C)c2C#N)CN(C)C(=O)c2ccc(F)cc21` [LORLATINIB], for which the AC50 (in assay [1]; in assay [6]; in assay [2]; on Histamine H3 receptor; on Adenosine receptor A2a; in assay [3]) was greater than 30 µM in each case. For the same compound, the AC50 in assay [4] and in [5] was greater than 30 µM in each case.

Turning to `CC(=O)/N=c1/sc(S(N)(=O)=O)nn1C` [METHAZOLAMIDE], the AC50 in [1] is greater than 10 µM; in assay [6], greater than 10 µM; at Progesterone receptor, greater than 30 µM; in assay [2], greater than 30 µM; in assay [7], greater than 10 µM; at Adenosine receptor A3, greater than 30 µM. For the same compound, the AC50 (on Adenosine receptor A2a; in assay [3]; at Thromboxane A2 receptor; in [8]; in assay [5]) was greater than 10 µM in each case.

For `CC(=O)Oc1ccccc1C(=O)Nc1ncc([N+](=O)[O-])s1` [NITAZOXANIDE], the AC50 was 8.8 µM in [1]; greater than 30 µM in [6]; greater than 30 µM at Progesterone receptor; 0.45 µM in assay [2]; greater than 30 µM in assay [7]; 10 µM on Histamine H3 receptor. The AC50 at Adenosine receptor A3 was 9.88 µM; on Adenosine receptor A2a it was 8.8 µM; in [3] it was 15 µM; at Thromboxane A2 receptor it was 5 µM; in assay [8], greater than 30 µM; in assay [5] it was 6.6 µM.

Turning to `CNC[C@H](O)c1cccc(O)c1` [PHENYLEPHRINE], the AC50 in [6] was greater than 10 µM; at Progesterone receptor it was greater than 30 µM; in assay [2], greater than 30 µM; in assay [7] it was greater than 10 µM; at Histamine H3 receptor, greater than 10 µM; at Adenosine receptor A3 it was greater than 30 µM. Also, the AC50 on Adenosine receptor A2a was greater than 30 µM; in assay [3], greater than 30 µM; on Thromboxane A2 receptor it was greater than 30 µM; in assay [8], greater than 10 µM; in assay [5] it was greater than 30 µM.

For the compound `CCOc1cc(CC(=O)N[C@@H](CC(C)C)c2ccccc2N2CCCCC2)ccc1C(=O)O` [REPAGLINIDE], the concentration at half-maximal activity (AC50) (in assay [1]; in [6]; in [2]; at Histamine H3 receptor; at Adenosine receptor A2a; in assay [3]) was greater than 30 µM throughout. Further, the AC50 in assay [4] and in assay [5] was greater than 30 µM throughout.

For `CCCN(CCC)CCc1cccc2c1CC(=O)N2` [ROPINIROLE], the AC50 in assay [1] is greater than 30 µM; in assay [6], greater than 30 µM; in assay [2], greater than 30 µM; in [7] it was greater than 10 µM; on Histamine H3 receptor, 9.25 µM; at Adenosine receptor A2a, greater than 30 µM. Also, the AC50 (in [3]; in [4]; at Thromboxane A2 receptor; in [5]) was greater than 30 µM each time.

Take `CCCN(CCc1cccs1)[C@H]1CCc2c(O)cccc2C1` [ROTIGOTINE]: the AC50 in [1] was greater than 30 µM; in [6] it was greater than 30 µM; in assay [2] it was greater than 30 µM; at Histamine H3 receptor, greater than 30 µM; at Adenosine receptor A2a it was greater than 30 µM; in assay [3], 29 µM. Besides, the AC50 in assay [4] and in assay [5] was greater than 30 µM each time.

For the compound `CC[C@H]1OC(=O)[C@H](C)[C@@H](O[C@H]2C[C@@](C)(OC)[C@@H](O)[C@H](C)O2)[C@H](C)[C@@H](O[C@@H]2O[C@H](C)C[C@H](N(C)C)[C@H]2O)[C@](C)(O)C[C@@H](C)/C(=N\OCOCCOC)[C@H](C)[C@@H](O)[C@]1(C)O` [ROXITHROMYCIN], the AC50 (in assay [1]; in assay [6]; in [2]; on Histamine H3 receptor; on Adenosine receptor A2a; in [3]) was greater than 30 µM throughout. Further, the AC50 in assay [4] and in assay [5] was greater than 30 µM each time.
